Converted amounts (≈) assume the structure as drawn.
Columns and labels:
[1] = tested on: Trichophyton mentagrophytes SM-110; assay: Antifungal activity evaluation test: minimum inhibitory concentration (MIC), broth dilution by reference to CLSI M38-A2; format: cell-based; conditions: SM110, read-out: MIC (T. menta.)
Method in brief: (§1)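 MIC read visually as lowest concentration inhibiting growth by at least 80% relative to control after 4 days at 35° C. Trichophyton strains inoculated at 2×10^3 cells/mL final in MOPS-buffered RPMI 1640 (pH 7.0); compounds as 2-fold DMSO series, CLSI M38-A2 basis.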

[2] = tested on: Trichophyton rubrum KD-1130; assay: as above; format: cell-based; conditions: KD1130, read-out: MIC (T. rubrum)
Method in brief: as §1

[3] = Nail permeability test through human nail using Franz cell; format: in vitro ADME; conditions: 5% in propylene glycol:ethanol (1:4), 32° C.
Procedure: Permeability through human nail was measured by the method shown below using Franz cell. • Test Preparation: A test compound was dissolved in a propylene glycol:ethanol (1:4) mixed solution at a concentration of 5% to give a test preparation. As control compounds terbinafine and amorolfine were used. • (1) Human nail (thickness 300-500 μm) was fixed using a nail adapter for Franz cell, and mounted on Franz cell. • (2) The receptor chamber of the Franz cell was filled with phosphate buffer, and placed in a thermostatic chamber at 32° C. • (3) A test preparation was applied to the aforementioned human nail at 61 μL/cm^2, after which a receptor solution was collected over days, and the concentration of the test compound in the receptor was measured by a liquid chromatography mass spectrometry method (LC/MS/MS). The cumulative amount of drug permeation (μg/cm^2) was calculated from the measured drug concentration in the receptor. A cumulative amount of drug permeation relative to the time after start of the test was plotted and the slope at final 4 time points was taken as Flux (μg/cm^2/day). The abbreviations in the Table mean the following compounds • TBF: terbinafine • AMF: amorolfine

Compound | MIC [1] [µg/mL] | MIC [2] [µg/mL] | nail permeability (Flux) [3]
CCC(C)(C)c1ccc(CC(C)CN2C[C@@H](C)O[C@@H](C)C2)cc1 (stereo partly drawn) [AMF, amorolfine, reference compound] | ≤ 0.1 | ≤ 0.1 | D (D: <0.001)
CN(C/C=C/C#CC(C)(C)C)Cc1cccc2ccccc12 [TBF, terbinafine, reference compound] | ≤ 0.1 | ≤ 0.1 | D (D: <0.001)
COC(=O)CN(C)c1ncc(Oc2ncccc2-c2ccccc2OC)cn1 [I-387, methyl 2-[(5-{[3-(2-methoxyphenyl)pyridin-2-yl]oxy}pyrimidin-2-yl)(methyl)amino]acetate] | ≤ 0.1 | ≤ 0.1 | –
Cc1ccncc1-c1cccnc1Oc1ccc(C(C)(F)F)c(F)c1 [I-305, 2-[4-(1,1-difluoroethyl)-3-fluorophenoxy]-4′-methyl-3,3′-bipyridine] | ≤ 0.1 | ≤ 0.1 | –
Cc1nsc(C)c1-c1cccnc1Oc1ccc(C(C)(F)F)nc1 [I-101, 4-(2-{[6-(1,1-difluoroethyl)pyridin-3-yl]oxy}pyridin-3-yl)-3,5′-dimethylisothiazole] | 0.2 to 0.78 (≈ 0.576 to 2.25 µM) | 0.2 to 0.78 (≈ 0.576 to 2.25 µM) | –
COc1ccccc1-c1cccnc1Oc1cnc(N(C)Cc2ccccc2)nc1 [I-339, N-benzyl-5-{[3-(2-methoxyphenyl)pyridin-2-yl]oxy}-N-methylpyrimidin-2-amine] | ≤ 0.1 | ≤ 0.1 | –
COc1cc(F)ccc1-c1cccnc1Oc1cnc(N(C)Cc2nccs2)nc1 [I-194, 5-{[3-(4-fluoro-2-methoxyphenyl)pyridin-2-yl]oxy}-N-methyl-N-(thiazol-2-ylmethyl)pyrimidin-2-amine] | ≤ 0.1 | 0.2 to 0.78 (≈ 0.472 to 1.84 µM) | –
COc1ccc(-c2cccnc2Oc2ccc(C(F)F)nc2)c(OC)n1 [I-78, 2′-{[6-(difluoromethyl)pyridin-3-yl]oxy}-2,6-dimethoxy-3,3′-bipyridine] | ≤ 0.1 | ≤ 0.1 | –
COc1ccccc1-c1cccnc1Oc1ccc(C(F)(F)F)cc1 [I-201, 3-(2-methoxyphenyl)-2-[4-(trifluoromethyl)phenoxy]pyridine] | ≤ 0.1 | ≤ 0.1 | –
Fc1cc2c(c(-c3cccnc3Oc3ccc(C(F)(F)F)nc3)c1)OCC2 [I-41, 3-(5-fluoro-2,3-dihydrobenzofuran-7-yl)-2-{[6-(trifluoromethyl)pyridin-3-yl]oxy}pyridine] | ≤ 0.1 | ≤ 0.1 | –
FC(F)(F)c1ccc(Oc2ncccc2-c2cncc3nccn23)cc1 [I-231, 5-{2-[4-(trifluoromethyl)phenoxy]pyridin-3-yl}imidazo[1,2-a]pyrazine] | 1.56 to 6.25 (≈ 4.38 to 17.5 µM) | 1.56 to 6.25 (≈ 4.38 to 17.5 µM) | –
COc1ccccc1-c1cccnc1Oc1cnc(C(F)(F)F)c(C)c1 [I-117, 5-{[3-(2-methoxyphenyl)pyridin-2-yl]oxy}-3-methyl-2-(trifluoromethyl)pyridine] | ≤ 0.1 | ≤ 0.1 | –
COc1ncccc1-c1cccnc1Oc1ccc(C(C)(F)F)nc1 [I-88, 2-{[6-(1,1-difluoroethyl)pyridin-3-yl]oxy}-2′-methoxy-3,3′-bipyridine] | ≤ 0.1 | ≤ 0.1 | –
COc1nc(C)ccc1-c1cccnc1Oc1ccc(C(F)(F)F)nc1 [I-29, 2-methoxy-6-methyl-2′-{[6-(trifluoromethyl)pyridin-3-yl]oxy}-3,3′-bipyridine] | ≤ 0.1 | ≤ 0.1 | –
CC(F)(F)c1ccc(Oc2ncccc2-c2cccc(F)c2C#N)cn1 [I-87, 2-(2-{[6-(1,1-difluoroethyl)pyridin-3-yl]oxy}pyridin-3-yl)-6-fluorobenzonitrile] | 0.2 to 0.78 (≈ 0.563 to 2.2 µM) | 0.2 to 0.78 (≈ 0.563 to 2.2 µM) | –
Fc1ccc(F)c(-c2cccnc2Oc2ccc(C(F)(F)F)nc2)c1 [I-7, 3-(2,5-difluorophenyl)-2-{[6-(trifluoromethyl)pyridin-3-yl]oxy}pyridine] | ≤ 0.1 | ≤ 0.1 | –
COc1ncccc1-c1cccnc1Oc1ccc2c(c1)CCCC2 [I-269, 2-methoxy-2′-[(5,6,7,8-tetrahydronaphthalen-2-yl)oxy]-3,3′-bipyridine] | ≤ 0.1 | ≤ 0.1 | –
